From patent publication US20060004197A1, “Sulfonamide-based compounds as protein tyrosine kinase inhibitors” (priority 2004, published 2006)

What follows are compounds tested against T1, Recombinant human Src (Homo sapiens, UniProt P12931) (assay: Src tyrosine kinase activity, poly E4Y / 32P-ATP phosphorylation assay). Details: Table 2, Formula I compounds; NI = no inhibition at 100 μg/mL.
T1 construct: made in house; host or cells: baculovirus-insect cell system
Format: biochemical
Protocol: Recombinant human Src was expressed using the baculovirus-insect cell system and purified as published (Budde et al., 1993 and 2000).
The tyrosine kinase activity of Src, Csk and FGFr was determined using poly E4Y and ^32P-ATP. Briefly, enzymes were assayed in a reaction mixture consisting of 0.15 M EPPS-NaOH (pH 8.0) with 6 mM MgCl2, 0.2 mM γ^32P-ATP (0.2-0.4 mCi/μmol), 10% glycerol, 0.1% Triton X-100, and poly E4Y. Poly E4Y is a synthetic peptide whose phosphorylation is measured in this assay by the addition of the radioactively labeled phosphate from the ATP (Budde et al., 1995). […] When ATP was varied (0, 50, 100 and 250 μM), poly E4Y was kept constant at 150 μg/ml.

T1 sequence (P12931 whole entry): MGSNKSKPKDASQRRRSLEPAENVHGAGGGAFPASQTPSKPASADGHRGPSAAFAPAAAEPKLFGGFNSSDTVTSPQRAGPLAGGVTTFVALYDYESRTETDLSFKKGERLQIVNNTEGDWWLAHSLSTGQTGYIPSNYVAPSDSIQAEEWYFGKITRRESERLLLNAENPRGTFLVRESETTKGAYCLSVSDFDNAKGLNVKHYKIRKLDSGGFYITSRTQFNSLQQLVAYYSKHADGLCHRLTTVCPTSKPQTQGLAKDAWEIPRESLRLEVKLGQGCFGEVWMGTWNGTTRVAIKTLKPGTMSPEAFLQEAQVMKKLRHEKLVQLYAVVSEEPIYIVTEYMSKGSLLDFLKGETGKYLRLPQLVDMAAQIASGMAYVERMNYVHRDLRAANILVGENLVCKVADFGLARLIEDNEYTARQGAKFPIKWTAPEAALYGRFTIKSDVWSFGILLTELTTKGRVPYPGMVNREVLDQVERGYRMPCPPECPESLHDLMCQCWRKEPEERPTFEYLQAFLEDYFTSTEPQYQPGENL

Row | IC50 | SMILES
1 | > 176 µM | Cc1ccc(S(=O)(=O)Nc2cc(NCc3cccnc3)c([N+](=O)[O-])cc2NS(=O)(=O)c2ccc(C)cc2)cc1 [Compound 9d, N-[5-nitro-4-[(pyridin-3-ylmethyl)-amino]-2-(4-toluenesulfonylamino)-phenyl]-4-toluenesulfonamide]

Same assay, conditions: Table 2; compound at 15 ug/mL; read-out: % Inhibition at 15 ug/mL Src (%)

Row | inhibition at 15 µg/mL | SMILES
2 | 17% | COc1ccc(CNc2cc(NS(=O)(=O)c3ccc(C)cc3)c(NS(=O)(=O)c3ccc(C)cc3)cc2[N+](=O)[O-])cc1 [Compound 9f, N-[4-(4-methoxy-benzylamino)-5-nitro-2-(4-toluenesulfonylamino)-phenyl]-4-toluenesulfonamide]
3 | 2% | Cc1ccc(S(=O)(=O)Nc2cc(N3CCN(C)CC3)c([N+](=O)[O-])cc2NS(=O)(=O)c2ccc(C)cc2)cc1 [Compound 9b, N-[4-(4-methyl-piperazin-1-yl)-5-nitro-2-(4-toluenesulfonylamino)-phenyl]-4-toluenesulfonamide]

Same assay, conditions: Table 2; compound at 50 μg/mL (starred values); read-out: % Inhibition Src (%), * = assayed at 50 μg/mL

Row | inhibition at 50 µg/mL | SMILES
4 | 19% | Cc1ccc(S(=O)(=O)Nc2cc(NCc3cccnc3)c([N+](=O)[O-])cc2NS(=O)(=O)c2ccc(C)cc2)cc1 [Compound 9d, N-[5-nitro-4-[(pyridin-3-ylmethyl)-amino]-2-(4-toluenesulfonylamino)-phenyl]-4-toluenesulfonamide]

Same assay, conditions: Table 3, Formula II compounds; NI = no inhibition at 100 μg/mL

Row | IC50 | SMILES
5 | 20 µM | COc1ccc(Oc2ccc(NS(=O)(=O)c3ccc(Cl)c4nonc34)c(NS(=O)(=O)c3ccc(C)cc3)c2)cc1 [Compound 22u, 7-chloro-N-[4-(4-methoxy-phenoxy)-2-(4-toluenesulfonylamino)-phenyl]-benzo[1,2,5]oxadiazole-4-sulfonamide]
6 | 154 µM | COc1ccc(Oc2ccc(NS(=O)(=O)c3sc(NC(C)=O)nc3C)c(NS(=O)(=O)c3ccc(C)cc3)c2)cc1 [Compound 22q, N-{5-[4-(4-methoxy-phenoxy)-2-(4-toluenesulfonylamino)-phenylsulfamoyl]-4-methyl-thiazol-2-yl}-acetamide]
7 | 174 µM | COc1ccc(Oc2ccc(NS(=O)(=O)c3ccc(S(C)(=O)=O)cc3)c(NS(=O)(=O)c3ccc(C)cc3)c2)cc1 [Compound 22z, 4-methanesulfonyl-N-[4-(4-methoxy-phenoxy)-2-(4-toluenesulfonylamino)-phenyl]-benzenesulfonamide]
8 | 36 µM | CCCCc1ccc(S(=O)(=O)Nc2ccc(Oc3ccc(OC)cc3)cc2NS(=O)(=O)c2ccc(C)cc2)cc1 [Compound 22x, 4-butyl-N-[4-(4-methoxy-phenoxy)-2-(4-toluenesulfonylamino)-phenyl]-benzenesulfonamide]
9 | 45 µM | COc1ccc(Oc2ccc(NS(=O)(=O)c3cccc4cnccc34)c(NS(=O)(=O)c3ccc(C)cc3)c2)cc1 [Compound 22cc, N-[4-(4-methoxy-phenoxy)-2-(4-toluenesulfonylamino)-phenyl]-isoquinoline-5-sulfonamide]
10 | 25 µM | Cc1ccc(S(=O)(=O)Nc2ccc(NS(=O)(=O)c3c(C)noc3C)cc2NS(=O)(=O)c2ccc(C)cc2)cc1 [Compound 22j, 3,5-dimethyl-N-[3,4-bis-(4-toluenesulfonylamino)-phenyl]-isoxazole-4-sulfonamide]
11 | 44 µM | COc1ccc(Oc2ccc(NS(=O)(=O)c3cnc(Cl)c(Br)c3)c(NS(=O)(=O)c3ccc(C)cc3)c2)cc1 [Compound 22t, 5-bromo-6-chloro-N-[4-(4-methoxy-phenoxy)-2-(4-toluenesulfonylamino)-phenyl]-pyridine-3-sulfonamide]

Same assay, conditions: Table 3; compound at 15 μg/mL

Row | % Inhibition at 15 μg/mL Src (%) | SMILES
12 | 5% | Cc1ccc(S(=O)(=O)Nc2ccc(CO)cc2NS(=O)(=O)c2ccc(C)cc2)cc1 [Compound 22l]

Same assay, conditions: Table 3; compound at 15 μg/mL; read-out: % Inhibition at 15 μg/mL Src (%)

Row | inhibition at 15 µg/mL | SMILES
13 | 21% | Cc1ccc(S(=O)(=O)Nc2ccc(SCc3ccccc3Cl)cc2NS(C)(=O)=O)cc1 [Compound 22nn, N-[4-(2-chloro-benzylsulfanyl)-2-methanesulfonylamino-phenyl]-4-toluenesulfonamide]
14 | 3% | COc1ccc(Oc2ccc(NS(=O)(=O)c3cn(C)cn3)c(NS(=O)(=O)c3ccc(C)cc3)c2)cc1 [Compound 22s, N-[4-(4-methoxy-phenoxy)-2-(4-toluenesulfonylamino)-phenyl]-1-methyl-1H-imidazole-4-sulfonamide]
15 | 22% | COc1ccc(Oc2ccc(NS(=O)(=O)c3ccc(-c4ccon4)s3)c(NS(=O)(=O)c3ccc(C)cc3)c2)cc1 [Compound 22v, 5-isoxazol-3-yl-N-[4-(4-methoxy-phenoxy)-2-(4-toluenesulfonylamino)-phenyl]-thiophene-2-sulfonamide]
16 | 36% | Cc1ccc(S(=O)(=O)Nc2ccc(OCCCCCCCCO)cc2NS(=O)(=O)c2ccc(C)cc2)cc1 [Compound 12dd, N-[4-(8-hydroxy-octyloxy)-2-(4-toluenesulfonylamino)-phenyl]-4-toluenesulfonamide]
17 | 16% | Cc1ccc(S(=O)(=O)Nc2ccc(C(=NO)c3ccccc3)cc2NS(=O)(=O)c2ccc(C)cc2)cc1 [Compound 22jj, N-[4-(hydroxyimino-phenyl-methyl)-2-(4-toluenesulfonylamino)-phenyl]-4-toluenesulfonamide]
18 | 17% | Cc1ccc(S(=O)(=O)Nc2cc(SCc3ccccc3Cl)ccc2NS(C)(=O)=O)cc1 [Compound 22ll, N-[5-(2-chloro-benzylsulfanyl)-2-methanesulfonylamino-phenyl]-4-toluenesulfonamide]

Same assay, conditions: Table 4; compound at 15 μg/mL; read-out: % Inhibition at 15 μg/mL Src (%)

Row | inhibition at 15 µg/mL | SMILES
19 | 50% | COc1ccc(Oc2cc(NS(=O)(=O)c3ccc(C)cc3)c(NS(=O)(=O)c3ccc(C)cc3)cc2C(F)(F)F)cc1 [Compound 38b, N-[4-(4-methoxy-phenoxy)-2-(4-toluenesulfonylamino)-5-trifluoromethyl-phenyl]-4-toluenesulfonamide]

Same assay, conditions: Table 6, Formula V compounds; compound at 15 μg/mL; read-out: % Inhibition at 15 μg/mL Src (%)

Row | inhibition at 15 µg/mL | SMILES
20 | 22% | COc1ccc(Oc2ccc3c(c2)n(S(=O)(=O)c2ccc(C)cc2)c(=O)n3S(=O)(=O)c2ccc(C)cc2)cc1 [Compound 72c, 5-(4-methoxy-phenoxy)-1,3-bis-(4-toluenesulfonyl)-1,3-dihydro-benzoimidazol-2-one]
21 | 12% | COc1ccc(Oc2ccc3c(c2)NS(=O)(=O)N3)cc1 [Compound 72d, 5-(4-methoxy-phenoxy)-1,3-dihydro-benzo[1,2,5]thiadiazole 2,2-dioxide]
22 | 4% | COc1ccc(Oc2ccc3[nH]c(=O)[nH]c3c2)cc1 [Compound 72e, 5-(4-methoxy-phenoxy)-1,3-dihydro-benzoimidazol-2-one]
23 | 19% | COc1ccc(Oc2ccc3c(c2)[nH]c(=O)n3S(=O)(=O)c2ccc(C)cc2)cc1 [Compound 72b, 5-(4-methoxy-phenoxy)-1-(4-toluenesulfonyl)-1,3-dihydro-benzoimidazol-2-one]

Same assay, conditions: compound at 15 μg/mL; read-out: % Inhibition at 15 μg/mL Src %

Row | inhibition at 15 µg/mL | SMILES
24 | 21% | COc1ccc(Oc2cc(N)c(NS(=O)(=O)c3ccc(C)cc3)cc2C(F)(F)F)cc1 [Compound 71ee, N-[2-amino-4-(4-methoxy-phenoxy)-5-trifluoromethyl-phenyl]-4-toluenesulfonamide]
25 | 13% | COc1ccc(Oc2ccc(N)c(CNS(=O)(=O)c3ccc(C)cc3)c2)cc1 [Compound 71i, N-[2-amino-5-(4-methoxy-phenoxy)-benzyl]-4-toluenesulfonamide]
26 | 0% | COc1ccc(Oc2ccc(NS(=O)(=O)c3ccc(C)cc3)c(NC(=O)c3cnc(C)cn3)c2)cc1 [Compound 71h, N-[5-(4-methoxy-phenoxy)-2-(4-toluenesulfonylamino)-phenyl]-5-methyl-pyrazine-2-carboxamide]
27 | 19% | COc1ccc(Oc2ccc(NCc3ccc(C)cc3)c(NS(=O)(=O)c3ccc(C)cc3)c2)cc1 [Compound 71jj, N-[5-(4-methoxy-phenoxy)-2-(4-methyl-benzylamino)-phenyl]-4-toluenesulfonamide]
28 | 29% | Cc1ccc(S(=O)(=O)Nc2cc(SCc3ccccc3Cl)ccc2N)cc1 [Compound 71kk, N-[2-amino-5-(2-chloro-benzylsulfanyl)-phenyl]-4-toluenesulfonamide]
29 | 19% | COc1ccc(Oc2cc(NS(=O)(=O)c3ccc(C)cc3)c(N)cc2C(F)(F)F)cc1 [Compound 71gg, N-[2-amino-5-(4-methoxy-phenoxy)-4-trifluoromethyl-phenyl]-4-toluenesulfonamide]

Same assay, conditions: poly E4Y / 32P-ATP; Formula IV compounds

Row | IC50 | SMILES
30 | 203 µM | COc1ccc(Oc2ccc(NCc3ccc(NC(C)=O)cc3)c(NS(=O)(=O)c3ccc(C)cc3)c2)cc1 [Compound 71e, N-(4-{[4-(4-methoxy-phenoxy)-2-(4-toluenesulfonylamino)-phenylamino]-methyl}-phenyl)-acetamide]
31 | 1300 µM | COc1ccc(Oc2ccc(NS(=O)(=O)c3ccc(C)cc3)c(CN)c2)cc1 [Compound 71n, N-[2-aminomethyl-4-(4-methoxy-phenoxy)-phenyl]-4-toluenesulfonamide]
32 | 99 µM | COc1ccc(Oc2ccc(NS(=O)(=O)c3ccc(C)cc3)c(NC(=O)c3ccc(C)cc3)c2)cc1 [Compound 71q, N-[5-(4-methoxy-phenoxy)-2-(4-toluenesulfonylamino)-phenyl]-4-toluamide]
33 | 108 µM | COc1ccc(Oc2ccc(NS(=O)(=O)c3ccc(C)cc3)c(CNC(=O)c3ccc(C)cc3)c2)cc1 [Compound 71p, N-[5-(4-methoxy-phenoxy)-2-(4-toluenesulfonylamino)-benzyl]-4-toluamide]
34 | 39 µM | Cc1ccc(S(=O)(=O)Nc2ccc(NC(=O)c3ccccc3)cc2N(C(=O)c2ccccc2)S(=O)(=O)c2ccc(C)cc2)cc1 [Compound 71o, N-[3-[benzoyl-(4-toluenesulfonyl)-amino]-4-(4-toluenesulfonylamino)-phenyl]-benzamide]
